The record followed here is US8563742B2, “Substituted aminothiazole derivatives, pharmaceutical compositions, and methods of use” (High Point Pharmaceuticals, LLC, priority 2008, dated 2013).

Where two headings read alike, the source gives them in different places.

In one data set the target is T1, human MC-4R (Homo sapiens, UniProt P32245).
T1 construct: expressed in transfected cells
The data set can be described thus: Biological Assay: inhibition of AgRP functional interaction with MC-4R in presence of αMSH (cAMP production). Format: cell-based. The conditions noted are these: HEK293 cells expressing human MC-4R, AgRP83-132 and αMSH present. As to the method:
The following method is illustrative of techniques that may be employed to measure the ability of the compounds of Formula (I) to functionally modulate the binding of AgRP to melanocortin receptors. In particular, the assay below measures the ability of compounds of Formula (I) or pharmaceutically acceptable salts thereof to functionally modulate the binding of AgRP to MC-4R in the presence of a MC-4R agonist, such as alpha-MSH.
HEK293 cells stably expressing human MC-4R receptors were grown in high glucose Dulbecco's Modified Eagle Medium (DMEM) with 4500 mg glucose/L, L-glutamine, NaHCO3, pyrdoxin HCl, 10 mM HEPES (pH 7.4), 0.1 mM NEAA (non-essential amino acid medium) (GIBCO Cat#11140-050), 10% fetal bovine serum and 700 μg/mL G418. Cells were grown in T-225 flasks at 37° C. with CO2 and humidity control.
On the day of assay, cells were washed twice with phosphate buffered saline without calcium and magnesium (PBS) and incubated with 10 mL PBS until the cells were detached from the flask. The detached cells were centrifuged at 240 g for 5 min. The cell pellet was re-suspended in assay buffer (Earle's balanced salt solution (Sigma E3024) supplemented with 10 mM HEPES, pH 7.4, 0.5 mM IBMX and protease inhibitor cocktail (Roche, 1 complete tablet/75 mL buffer)).
The inhibitory or enhancement effect of compounds on AgRP activity was measured in a multi-component assay containing testing compounds, AgRP83-132 (human, Phoenix Pharma, cat no. 003-53), cells expressing MC-4R, and αMSH (Bachem, cat no. H-1075). Test compounds, AgRP and αMSH were diluted with assay buffer. Test compounds and AgRP were mixed to 4 times of the final concentration and incubated at room temperature for 30 min. Five μL of testing compound/AgRP solution followed with 10 μL of cells (20,000 cells/well) were added to each well of a 384-well reaction plate before 5 μL of αMSH was added. Cells were stimulated with αMSH for an additional 30 min at 37° C.
Stimulation of cells was stopped by adding a lysis buffer and cells were lysed. The intracellular concentration of cAMP may be measured by various techniques known to one of skill in the art including, but not limited to, fluorescence polarization (FP) and time-resolved fluorescence (TRF).
The inhibition was shown by an increase in MC-4R mediated cAMP production.

The nature of data set [1]: Stability in Liver Microsomes (human). The format is in vitro ADME. The conditions noted are these: 1 μM, 0.5 mg protein/mL, NADPH, 60 minutes, 37° C., pH 7.4. The procedure: (§1) Various compounds were tested for their stability in human, monkey, dog, rat, and mouse liver microsomes. At a final concentration of 1 μM, compounds were incubated with either human, monkey, dog, rat, or mouse liver microsomes (0.5 mg protein/mL) in the presence of an NADPH-solution for 60 minutes at 37° C., pH 7.4 in phosphate buffer. Incubations were performed in duplicate. Reactions were terminated by the addition of methanol. The incubation solution was vortexed and transferred into a 96-well plate. The plate was sealed and centrifuged at approximately 3500 rpm for approximately 10 minutes. After centrifugation, the plate was loaded into 96-well plate autosampler and analyzed by LC/MS. Values are reported as percent of compound remaining after 1 hour.
In general terms: Liver microsomes are a subcellular fraction often used to study metabolism.

Data set [2] can be described thus: Stability in Liver Microsomes (monkey). The conditions noted are these: 1 μM, 0.5 mg protein/mL, NADPH, 60 minutes, 37° C., pH 7.4. Format: in vitro ADME. As to the method:
as §1

Data set [3] can be described thus: Stability in Liver Microsomes (dog). The format is in vitro ADME. To be noted: 1 μM, 0.5 mg protein/mL, NADPH, 60 minutes, 37° C., pH 7.4. As to the method: as §1
Data set [4] is described as follows: Stability in Liver Microsomes (rat). The conditions noted are these: 1 μM, 0.5 mg protein/mL, NADPH, 60 minutes, 37° C., pH 7.4. The format is in vitro ADME. The procedure: as §1
Data set [5] is described as follows: Stability in Liver Microsomes (mouse). Format: in vitro ADME. The conditions noted are these: 1 μM, 0.5 mg protein/mL, NADPH, 60 minutes, 37° C., pH 7.4. The procedure: as §1
Where [6] appears, read: read-out: Average EC50 (nM) in Biological Assay.

T1 sequence (P32245 whole entry): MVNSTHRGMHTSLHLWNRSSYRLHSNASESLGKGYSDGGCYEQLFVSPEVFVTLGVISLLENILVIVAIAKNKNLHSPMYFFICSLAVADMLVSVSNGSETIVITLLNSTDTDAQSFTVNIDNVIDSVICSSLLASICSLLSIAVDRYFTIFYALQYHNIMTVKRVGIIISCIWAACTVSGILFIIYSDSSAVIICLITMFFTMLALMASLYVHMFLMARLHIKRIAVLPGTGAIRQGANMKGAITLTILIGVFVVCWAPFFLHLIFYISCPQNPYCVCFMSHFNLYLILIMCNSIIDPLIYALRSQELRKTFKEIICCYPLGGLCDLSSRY

For orientation: EC50 means the midpoint of the concentration-response curve. Consider `CCC1CCC(c2csc(N(CCC(=O)O)Cc3ccc(C)s3)n2)CC1` (stereo not drawn) [Example 19, 3-[[4-(4-Ethyl-cyclohexyl)-thiazol-2-yl]-(5-methyl-thiophen-2-ylmethyl)-amino]-propionic acid], for which, on human MC-4R (Average EC50 (nM) in Biological Assay), the EC50 is 386 nM. For the same compound, the “Stability in Liver Microsomes (% remaining after 1 hour incubation) Human” value in data set [1] is given as 43%. The “Stability in Liver Microsomes (% remaining after 1 hour incubation) Monkey” value in data set [2] is 60%. Moreover, the “Stability in Liver Microsomes (% remaining after 1 hour incubation) Dog” value in data set [3] was 87%. In data set [4], the “Stability in Liver Microsomes (% remaining after 1 hour incubation) Rat” value is 52%. Moreover, the “Stability in Liver Microsomes (% remaining after 1 hour incubation) Mouse” value in data set [5] was 73%.
On to `CCCC1CCC(c2csc(N(CCC(=O)O)Cc3ccc(C)s3)n2)CC1` (stereo not drawn) [Example 21, 3-{(5-Methyl-thiophen-2-ylmethyl)-[4-(4-propyl-cyclohexyl)-thiazol-2-yl]-amino}-propionic acid], for which the EC50 at human MC-4R (setting [6]) is 372 nM. Besides, the “Stability in Liver Microsomes (% remaining after 1 hour incubation) Human” value in data set [1] worked out at 84%. In data set [2], the “Stability in Liver Microsomes (% remaining after 1 hour incubation) Monkey” value turned out to be 47%. The “Stability in Liver Microsomes (% remaining after 1 hour incubation) Dog” value in data set [3] turned out to be 78%. The “Stability in Liver Microsomes (% remaining after 1 hour incubation) Rat” value in data set [4] is listed as 66%. Moreover, the “Stability in Liver Microsomes (% remaining after 1 hour incubation) Mouse” value in data set [5] is given as 86%.
For the compound `Cc1ccc(CN(CCC(=O)O)c2nc(C3CCC(F)(F)CC3)cs2)s1` [Example 23, Sodium; 3-[[4-(4,4-difluoro-cyclohexyl)-thiazol-2-yl]-(5-methyl-thiophen-2-ylmethyl)-amino]-propionate], the EC50 at human MC-4R (setting [6]) is 366 nM. In data set [1], the “Stability in Liver Microsomes (% remaining after 1 hour incubation) Human” value was 71%. For the same compound, the “Stability in Liver Microsomes (% remaining after 1 hour incubation) Monkey” value in data set [2] amounted to 56%. Moreover, the “Stability in Liver Microsomes (% remaining after 1 hour incubation) Dog” value in data set [3] was 94%. For the same compound, in data set [4], the “Stability in Liver Microsomes (% remaining after 1 hour incubation) Rat” value amounted to 15%. Also, the “Stability in Liver Microsomes (% remaining after 1 hour incubation) Mouse” value in data set [5] came to 60%.
In the case of `COC1CCC(c2csc(N(CCC(=O)O)Cc3ccc(C)s3)n2)CC1` (stereo not drawn) [Example 31, 3-[[4-(4-Methoxy-cyclohexyl)-thiazol-2-yl]-(5-methyl-thiophen-2-ylmethyl)-amino]-propionic acid], the concentration for a half-maximal effect (EC50) on human MC-4R (setting [6]) was determined as 1570 nM. For the same compound, in data set [1], the “Stability in Liver Microsomes (% remaining after 1 hour incubation) Human” value came to 83%. In data set [2], the “Stability in Liver Microsomes (% remaining after 1 hour incubation) Monkey” value was 88%. Also, the “Stability in Liver Microsomes (% remaining after 1 hour incubation) Dog” value in data set [3] came to 94%. In addition, in data set [4], the “Stability in Liver Microsomes (% remaining after 1 hour incubation) Rat” value is reported as 83%. In data set [5], the “Stability in Liver Microsomes (% remaining after 1 hour incubation) Mouse” value came to 91%.
With `Cc1cc(CN(CCC(=O)[O-])c2nc(C3CCC(c4ccccc4)CC3)cs2)c(C)s1.[Na+]` (stereo not drawn) [Example 40, Sodium; 3-{(2,5-dimethyl-thiophen-3-ylmethyl)-[4-(4-phenyl-cyclohexyl)-thiazol-2-yl]-amino}-propionate], the EC50 on human MC-4R (setting [6]) is 219 nM. Also, the “Stability in Liver Microsomes (% remaining after 1 hour incubation) Human” value in data set [1] amounted to 61%. Also, the “Stability in Liver Microsomes (% remaining after 1 hour incubation) Monkey” value in data set [2] was found to be 85%. Further, in data set [3], the “Stability in Liver Microsomes (% remaining after 1 hour incubation) Dog” value is reported as 36%. Further, the “Stability in Liver Microsomes (% remaining after 1 hour incubation) Rat” value in data set [4] is 67%. The “Stability in Liver Microsomes (% remaining after 1 hour incubation) Mouse” value in data set [5] came out at 90%.
For `Cc1ccc(CN(CCC(=O)O)c2nc(C3CCC(C)(C)CC3)cs2)s1` [Example 55, 3-[[4-(4,4-Dimethyl-cyclohexyl)-thiazol-2-yl]-(5-methyl-thiophen-2-ylmethyl)-amino]-propionic acid], the EC50 at human MC-4R (setting [6]) stood at 70 nM. In addition, the “Stability in Liver Microsomes (% remaining after 1 hour incubation) Human” value in data set [1] is recorded as 49%. Besides, the “Stability in Liver Microsomes (% remaining after 1 hour incubation) Monkey” value in data set [2] is on record as 78%. In addition, in data set [3], the “Stability in Liver Microsomes (% remaining after 1 hour incubation) Dog” value is given as 80%. For the same compound, the “Stability in Liver Microsomes (% remaining after 1 hour incubation) Rat” value in data set [4] was found to be 64%. Further, the “Stability in Liver Microsomes (% remaining after 1 hour incubation) Mouse” value in data set [5] turned out to be 68%.
For the compound `Cc1ccc(CN(CCC(=O)[O-])c2nc(C3CCC(C4CCCCC4)CC3)cs2)s1.[Na+]` (stereo not drawn) [Example 60, Sodium; 3-[(4-bicyclohexyl-4-yl-thiazol-2-yl)-(5-methyl-thiophen-2-ylmethyl)-amino]-propionate], on human MC-4R (setting [6]), the EC50 was found to be 191 nM. The “Stability in Liver Microsomes (% remaining after 1 hour incubation) Human” value in data set [1] turned out to be 92%. Further, in data set [2], the “Stability in Liver Microsomes (% remaining after 1 hour incubation) Monkey” value was found to be 83%. For the same compound, the “Stability in Liver Microsomes (% remaining after 1 hour incubation) Dog” value in data set [3] amounted to 99%. The “Stability in Liver Microsomes (% remaining after 1 hour incubation) Rat” value in data set [4] is on record as 86%. In data set [5], the “Stability in Liver Microsomes (% remaining after 1 hour incubation) Mouse” value was found to be 87%.
On to `Cc1ccc(CN(CCC(=O)[O-])c2nc(C3CCC(c4ccc(F)cc4)CC3)cs2)s1.[Na+]` (stereo not drawn) [Example 61, Sodium; 3-[{4-[4-(4-fluoro-phenyl)-cyclohexyl]-thiazol-2-yl}-(5-methyl-thiophen-2-ylmethyl)-amino]-propionate], for which the EC50 on human MC-4R (setting [6]) came to 246 nM. Besides, in data set [1], the “Stability in Liver Microsomes (% remaining after 1 hour incubation) Human” value was 68%. In addition, the “Stability in Liver Microsomes (% remaining after 1 hour incubation) Monkey” value in data set [2] was 13%. Also, the “Stability in Liver Microsomes (% remaining after 1 hour incubation) Dog” value in data set [3] is on record as 84%. Besides, the “Stability in Liver Microsomes (% remaining after 1 hour incubation) Rat” value in data set [4] stood at 40%. The “Stability in Liver Microsomes (% remaining after 1 hour incubation) Mouse” value in data set [5] amounted to 74%.
Turning to `CC(C)(C)[C@H]1CC[C@H](c2csc(N(CCC(=O)O)Cc3cccs3)n2)CC1` [Reference Compound D, Sodium 3-[[4-(trans-4-tert-butyl-cyclohexyl)-thiazol-2-yl]-(thiophen-2-ylmethyl)-amino]-propionate, reference compound], the “Stability in Liver Microsomes (% remaining after 1 hour incubation) Human” value in data set [1] is 51%. For the same compound, the “Stability in Liver Microsomes (% remaining after 1 hour incubation) Monkey” value in data set [2] came to 76%. Moreover, the “Stability in Liver Microsomes (% remaining after 1 hour incubation) Dog” value in data set [3] turned out to be 47%. Moreover, in data set [4], the “Stability in Liver Microsomes (% remaining after 1 hour incubation) Rat” value is reported as 26%. Further, the “Stability in Liver Microsomes (% remaining after 1 hour incubation) Mouse” value in data set [5] came out at 79%.
`O=C([O-])CCN(Cc1cccs1)c1nc(C2CCC(c3ccccc3)CC2)cs1.[Na+]` (stereo not drawn) [Reference Compound E, Sodium 3-[[4-(trans-4-phenyl-cyclohexyl)-thiazol-2-yl]-(5-thiophen-2-ylmethyl)-amino]-propionate, reference compound]: the “Stability in Liver Microsomes (% remaining after 1 hour incubation) Human” value in data set [1] was 60%. Further, the “Stability in Liver Microsomes (% remaining after 1 hour incubation) Monkey” value in data set [2] amounted to 38%. Besides, the “Stability in Liver Microsomes (% remaining after 1 hour incubation) Dog” value in data set [3] was 50%. Also, the “Stability in Liver Microsomes (% remaining after 1 hour incubation) Rat” value in data set [4] is recorded as 52%. For the same compound, the “Stability in Liver Microsomes (% remaining after 1 hour incubation) Mouse” value in data set [5] was found to be 51%.
As to `CCc1ccc(CN(CCC(=O)[O-])c2nc(-c3ccc(N4CCCC4)cc3)cs2)s1.[Na+]` [Reference Compound F, reference compound], the “Stability in Liver Microsomes (% remaining after 1 hour incubation) Human” value in data set [1] turned out to be 40%. Further, the “Stability in Liver Microsomes (% remaining after 1 hour incubation) Monkey” value in data set [2] was determined as 5%. In addition, the “Stability in Liver Microsomes (% remaining after 1 hour incubation) Dog” value in data set [3] is given as 45%. Also, the “Stability in Liver Microsomes (% remaining after 1 hour incubation) Rat” value in data set [4] was found to be 27%. Further, in data set [5], the “Stability in Liver Microsomes (% remaining after 1 hour incubation) Mouse” value turned out to be 30%.
